Patent US4076931A, “Derivatives of an antibiotic XK-62-2 and the process for the production thereof” (Abbott Laboratories, priority 1974, dated 1978)
In brackets after ≈: the same amount, converted by molar mass. Like-named read-outs stand apart in the source and are kept apart here.

Experiments:
Assay type in all cases: cell-based
[1] = tested on: Pseudomonas aeruginosa BMH No. 1; experiment: Minimum inhibitory concentration by agar dilution method, Pseudomonas aeruginosa BMH No. 1; settings: for MIC: BMHNO.1
Excerpt: (§1) Table 1 illustrates minimum inhibitory concentration of 1-N-(α-hydroxy-δ-aminovaleryl)XK-62-2 and 1-N-(α-hydroxy-ε- aminocaproyl)XK-62-2 against various Gram-negative and Gram-positive bacteria determined by agar dilution method.

[2] = tested on: Staphylococcus aureus ATCC 6538P; experiment: Minimum inhibitory concentration by agar dilution method, Staphylococcus aureus ATCC 6538P; settings: for MIC: ATCC6538P
Excerpt: as §1

[3] = tested on: Bacillus subtilis No. 10707; experiment: Minimum inhibitory concentration by agar dilution method, Bacillus subtilis No. 10707
Excerpt: as §1

[4] = tested on: Proteus vulgaris ATCC 6897; experiment: Minimum inhibitory concentration by agar dilution method, Proteus vulgaris ATCC 6897
Excerpt: as §1

[5] = tested on: Shigella sonnel ATCC 9290; experiment: Minimum inhibitory concentration by agar dilution method, Shigella sonnel ATCC 9290; settings: for MIC: Shigella, ATCC9290, read-out: Minimum Inhibitory Concentration
Excerpt: as §1

[6] = tested on: Salmonella typhosa ATCC 9922; experiment: Minimum inhibitory concentration by agar dilution method, Salmonella typhosa ATCC 9922; settings: for MIC: Salmonella enterica, read-out: Minimum Inhibitory Concentration
Excerpt: as §1

[7] = tested on: Klebsiella penumoniae ATCC 10031; experiment: Minimum inhibitory concentration by agar dilution method, Klebsiella penumoniae ATCC 10031; settings: for MIC: ATCC10031
Excerpt: as §1

Escherichia coli ATCC 26 = experiment: Minimum inhibitory concentration by agar dilution method, Escherichia coli ATCC 26
Excerpt: as §1

Escherichia coli KY 8327 = experiment: Minimum inhibitory concentration by agar dilution method, Escherichia coli KY 8327; settings: for antibacterial activity: Escherichia coli KY 8327, resistant to kanamycins and gentamicins, in words; for MIC: KY8327
Excerpt: as §1
(§2) In the above Table 1, Escherichia coli KY 8327 and KY 8348 respectively produce adenyltransferase and acetyltransferase intracellularly; the former enzyme inactivates kanamycins and gentamicins by adenylation, and the latter inactivates gentamicins by acetylation.

Escherichia coli KY 8348 = experiment: Minimum inhibitory concentration by agar dilution method, Escherichia coli KY 8348; settings: for antibacterial activity: Escherichia coli KY 8348, resistant to known aminoglycoside antibiotics, in words; for MIC: KY8348
Excerpt: as §1, §2

[8] = tested on: Escherichia coli strains having R factors; experiment: Antibacterial activity against Escherichia coli strains having R factors; settings: resistant to known aminoglycoside antibiotics, in words
Excerpt: as §1

[9] = Escherichia coli KY 8327 (produces adenyltransferase), agar dilution method
[10] = Escherichia coli KY 8348 (produces acetyltransferase), agar dilution method

| Compound | antibacterial activity (Escherichia coli KY 8327) | antibacterial activity (Escherichia coli KY 8348) | antibacterial activity [8] | MIC [1] [µg/mL] | MIC [2] [µg/mL] | MIC [3] [µg/mL] | MIC [5] [µg/mL] | MIC [6] [µg/mL] | MIC [7] [µg/mL] | MIC (Escherichia coli KY 8327; [9]) [µg/mL] | MIC (Escherichia coli KY 8348; [10]) [µg/mL] | further results |
| --- | --- | --- | --- | --- | --- | --- | --- | --- | --- | --- | --- | --- |
| 1-N-[L-(-)-α-hydroxy-ε-aminocaproyl]XK-62-2 | very strong antibacterial activity | very strong antibacterial activity | strong antibacterial activity |  |  |  |  |  |  |  |  | Minimum Inhibitory Concentration [1]: 4.17 µg/mL; Minimum Inhibitory Concentration [2]: 0.033 µg/mL; Minimum Inhibitory Concentration [3]: 0.008 µg/mL; Minimum Inhibitory Concentration ([4]; Proteus vulgaris ATCC 6897, agar dilution method): 0.26 µg/mL; Minimum Inhibitory Concentration ([5]; Shigella sonnel ATCC 9290, agar dilution method): 0.26 µg/mL; Minimum Inhibitory Concentration ([6]; Salmonella typhosa ATCC 9922, agar dilution method): 0.065 µg/mL; Minimum Inhibitory Concentration [7]: 0.033 µg/mL; Minimum Inhibitory Concentration (Escherichia coli ATCC 26; Escherichia coli ATCC 26, agar dilution method): 0.13 µg/mL; Minimum Inhibitory Concentration (Escherichia coli KY 8327; [9]): 0.013 µg/mL; Minimum Inhibitory Concentration (Escherichia coli KY 8348; [10]): 0.065 µg/mL |
| CNC[C@@H]1CC[C@@H](N)[C@@H](O[C@H]2[C@H](O)[C@@H](O[C@H]3OC[C@](C)(O)[C@H](NC)[C@H]3O)[C@H](NC(=O)[C@@H](O)CCCN)C[C@@H]2N)O1 [1-N-[L-(-)-α-hydroxy-δ-aminovaleryl]XK-62-2] | very strong antibacterial activity | very strong antibacterial activity | strong antibacterial activity | 0.52 (≈ 0.899 µM) | 0.008 (≈ 0.0138 µM) | < 0.004 | 0.065 (≈ 0.112 µM) | 0.016 (≈ 0.0276 µM) | 0.008 (≈ 0.0138 µM) | 0.065 (≈ 0.112 µM) | 0.033 (≈ 0.057 µM) | MIC ([4]; ATCC6897, Proteus vulgaris ATCC 6897, agar dilution method, read-out: Minimum Inhibitory Concentration): 0.065 µg/mL (≈ 0.112 µM); MIC (Escherichia coli ATCC 26; ATCC26, Escherichia coli ATCC 26, agar dilution method, read-out: Minimum Inhibitory Concentration): 0.033 µg/mL (≈ 0.057 µM) |
| CNC[C@@H]1CC[C@@H](N)[C@@H](O[C@H]2[C@H](O)[C@@H](O[C@H]3OC[C@](C)(O)[C@H](NC)[C@H]3O)[C@H](N)C[C@@H]2N)O1 [XK-62-2] |  |  |  | 0.13 (≈ 0.28 µM) | < 0.004 | < 0.004 | 0.033 (≈ 0.0712 µM) | 0.008 (≈ 0.0173 µM) | < 0.004 | 1.04 (≈ 2.24 µM) | 1.04 (≈ 2.24 µM) | MIC ([4]; Proteus vulgaris, ATCC6897, read-out: Minimum Inhibitory Concentration): 0.016 µg/mL (≈ 0.0345 µM); MIC (Escherichia coli ATCC 26; Escherichia coli, ATCC26, read-out: Minimum Inhibitory Concentration): 0.016 µg/mL (≈ 0.0345 µM) |
